This is an account of results in US20120009593A1, “ANALYSIS METHOD FOR THE IN VITRO DIAGNOSIS OF BENIGN PROSTATIC HYPERPLASIA (BPH) IN DOGS BY ASSAYING CANINE PROSTATE SPECIFIC ESTERASE, AND BPH TREATMENT FOLLOW UP” (VIRBAC SA, priority 2009, published 2012).

Several values for one entry are separate records, joined by “and”; a condition that tells them apart may be missing. Identical values can stand only once.

Test [1] has as its system dogs with signs of BPH. In words: Anti-androgen treatment follow up: serum CPSE level in treated dogs. Type of test: in vivo, dog. The method, then:
The CPSE concentration in the serum or plasma samples was determined by sandwich ELISA. 96-well microplates (Stripwell Costar/Corning, N.Y., USA) were coated overnight at +4° C. with monoclonal or polyclonal anti-CPSE antibodies, at a concentration of 5 μg/ml in a carbonate buffer at pH 9.6. After 4 washes, the wells were incubated for 1 hour at 37° C. with a saline phosphate buffer at pH 7.2, while adding 5% bovine serum albumin. Finally, the plates were incubated for 30 minutes at room temperature with a saline phosphate buffer at pH 7.2 to which 10% sucrose was added. Once emptied, the microplates were dried overnight under vacuum, and then packaged in the presence of a desiccant until use.
The assay of samples is carried out by dispensing […] of serum or plasma (heparinized plasma or EDTA plasma) into each of the wells. After 1 hour at 37° C., the microplate is washed. 100 μl of monoclonal or polyclonal anti-CPSE antibodies conjugated to peroxidase are dispensed. The wells are incubated for 1 hr at 37° C. and washed again. The antibodies remaining attached to the walls are developed by adding 3,3′,5,5′tetramethyl benzidine. After completion of the reaction, the absorbance is read at 450 nm.
Five dogs with signs of BPH (see inclusion criteria above) were treated with osaterone acetate (YPOZANE®, Virbac). This molecule is an anti-androgen, which acts on the prostatic parenchyma. The CPSE level was measured at days D15 and D0. The dogs were treated as recommended and were given from 0.25-0.5 mg/kg/day of osaterone acetate, for a period of 7 days. Serum was collected prior to any treatment and after 15 days. The CPSE level was measured in the different samples.
Dogs with signs of PBH were treated with osaterone acetate, as recommended by the manufacturer. The serum CPSE level in these dogs was measured before the treatment and after 15 days.

Test [2] has as its system dogs with signs of BPH. In words: Anti-androgen treatment follow up: prostate size by digital rectal examination. Conditions: all five treated dogs, after treatment. The format is in vivo, dog.

With `CC(=O)O[C@]1(C(C)=O)CC[C@H]2[C@@H]3C=C(Cl)C4=CC(=O)OC[C@]4(C)[C@H]3CC[C@@]21C` [osaterone acetate], the “change in serum CPSE level between before treatment and treatment completed” value in test [1] (five dogs with signs of BPH, D0 vs D15) is recorded as “decrease in the serum CPSE level”. The “CPSE (ng/ml), D + 15” value in test [1] (serum, individual Dogs 1-5 with signs of BPH, D+15, 0.25-0.5 mg/kg/day for 7 days) is 15 ng/mL and 21 ng/mL and 40 ng/mL and 10 ng/mL and 36 ng/mL. The “CPSE (ng/ml), Visit 2” value in test [1] (serum, individual dogs C1-C5 with signs of BPH, 15 days after first sampling, 0.25-0.5 mg/kg/day for 7 days) is 15 ng/mL and 21 ng/mL and 40 ng/mL and 10 ng/mL and 36 ng/mL. Also, in test [2], the “size of the prostate by digital rectal examination” value is listed as “return to a normal size of the prostate”.
